These results are taken from PMC3752380 (Nature chemical biology, 2013).

For data set [1], the target named is T1, MeaB (Methylorubrum extorquens, UniProt C5AP93).
T1 sequence (C5AP93 1-329): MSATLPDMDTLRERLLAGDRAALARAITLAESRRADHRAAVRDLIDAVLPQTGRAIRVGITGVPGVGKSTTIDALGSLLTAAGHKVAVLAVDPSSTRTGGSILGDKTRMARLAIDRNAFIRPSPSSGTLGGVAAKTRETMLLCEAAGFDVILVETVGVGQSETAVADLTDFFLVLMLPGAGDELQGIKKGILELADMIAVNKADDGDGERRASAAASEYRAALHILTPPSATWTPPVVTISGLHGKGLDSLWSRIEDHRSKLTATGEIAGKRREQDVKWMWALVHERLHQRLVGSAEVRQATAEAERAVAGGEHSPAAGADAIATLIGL
Kind of data set: isothermal titration calorimetry. In kind it is binding. Background: Isothermal titration calorimetry measures the heat released or taken up as one component is titrated into another.

Data set [2] concerns the molecule itself. The data set is described as follows: crystal structure.

As for `Nc1nc2c(ncn2[C@@H]2O[C@H](COP(=O)(O)OP(=O)(O)NP(=O)(O)O)[C@@H](O)[C@H]2O)c(=O)[nH]1` [GMPPNP], the Kd (commonly the concentration at which binding is half-saturated) in data set [1] came to 900 ± 200 nM.
As for `Nc1nc2c(ncn2[C@@H]2O[C@H](COP(=O)(O)OP(=O)(O)O)[C@@H](O)[C@H]2O)c(=O)[nH]1` [GDP], binding in data set [1] was put at a Kd of 1400 ± 100 nM.

B1: MeaB (Methylobacterium extorquens AM1), wild type (natural protein)
chain: MSATLPDMDTLRERLLAGDRAALARAITLAESRRADHRAAVRDLIDAVLPQTGRAIRVGITGVPGVGKSTTIDALGSLLTAAGHKVAVLAVDPSSTRTGGSILGDKTRMARLAIDRNAFIRPSPSSGTLGGVAAKTRETMLLCEAAGFDVILVETVGVGQSETAVADLTDFFLVLMLPGAGDELQGIKKGILELADMIAVNKADDGDGERRASAAASEYRAALHILTPPSATWTPPVVTISGLHGKGLDSLWSRIEDHRSKLTATGEIAGKRREQDVKWMWALVHERLHQRLVGSAEVRQATAEAERAVAGGEHSPAAGADAIATLIGL
Turning to B1, in data set [2], the binding result is on record as “binds”.
